Laboratory results from patent publication US20150132342A1, “NOVEL IMMUNE ACTIVATORS: SUBSTITUTE 4-AMINOQUINAZOLINES” (The Regents of the University of California, priority 2013, published 2015).

How the values were obtained:
THP-1 cells = test: CellSensor NF-κB-bla THP-1 FRET β-lactamase reporter assay; assay type: cell-based, human; settings: graded concentrations, normalized to LPS
Procedure: The assay with CellSensor® NF-κB-bla THP-1 cells was performed almost identically to that with CellSensor® NF-κB-bla RAW 264.7 cells, except that cells were harvested, resuspended, and plated in RPMI (plus 10% dialyzed FBS, 0.1 mM non-essential amino acids, 1 mM sodium pyruvate, 100 U/ml penicillin and 100 μg/ml streptomycin) and incubated with drugs for only 5 h prior to addition of the 6× substrate mixture. Plates were then incubated for 2 h prior to measurement of fluorescence.

mBMDC = test: Co-stimulatory molecule expression in CD11c+ mBMDC (flow cytometry); assay type: cell-based, mouse; settings: CD11c+ population
Procedure: FIG. 2. Compound 1a induces type I IFN and expression of co-stimulatory molecules. A) Human PBMC were incubated with compound 1a (10 μM), LPS (10 ng/mL), or vehicle overnight. The release of type I IFN in the culture supernatants was measured by luciferase release in L929-ISRE reporter cells. Data shown are mean±SEM of triplicates. B) Compound 1a- or vehicle-treated wild type or Tlr4^−/−mBMDC were stained for CD11c and either CD40, CD80, or CD86. The expression levels of CD40, CD80, or CD86 were evaluated in the gated CD11c^+ population. DMSO 0.5% served as the vehicle control. C) Human PBMC were incubated with compound 1a (5 μM) overnight. CD80 and CD83 expression in gated CD11c^+ HLA-DR^+ population was analyzed by flow cytometer. Data are representative of two independent experiments showing similar results.
To evaluate whether treatment of DCs with this compound can induce maturation in these cells, mBMDC prepared from wild type or TLR4 deficient mice were exposed to compound 1a and then assayed for expression of co-stimulatory molecules CD40, CD80, and CD86 in the CD11c+ population (FIG. 2B). […] Induction of co-stimulatory molecules by compound 1a was also confirmed in human PBMC.

human PBMC [1] = test: Type I IFN release by hPBMC measured in L929-ISRE luciferase reporter cells; assay type: cell-based; settings: 10 μM, overnight; LPS 10 ng/mL comparator
Procedure: Type I interferon (IFN) assay. L929 cells stably expressing an IFN sensitive response element (ISRE) luciferase reporter construct were kindly provided by Dr. B. Beutler (UT Southwestern, Dallas, Tex.)^7. The bioactivity oftype I IFN in hPBMC supernatants was measured by luciferase assay using L929-ISRE cells as described previously.^7 L929-ISRE cells were plated at 5×10^4 cells per well inDulbecco's Modified Eagle Medium (Life Technologies) supplemented with 10% FCS, 100 U/mL penicillin and 100 μg/mL streptomycinin a 96-well white-walled clear-bottom plate and incubated overnight. Thus, 50 μL of supernatant was incubated with L929-ISRE cells in 50 μL of DMEM for 6 h. The luciferase activities were measured by GloBrightLuciferase Assay Buffer (Promega, Madison, Wis.).

[2] = test system: human TLRs (TLR2, TLR3, TLR4/MD-2/CD14, TLR5, TLR7, TLR8 or TLR9); test: Human TLR-transfected HEK293 NF-κB SEAP reporter cell panel; assay type: cell-based; settings: 10 μM, 20-24 h
Procedure: To identify the target receptor, we used HEK293 cells stably transfected with the following human TLRs (TLR2, TLR3, TLR4/MD-2/CD14, TLR5, TLR7, TLR8 or TLR9) along with an NF-κB activation reporter producing Secreted Alkaline Phosphatase (SEAP, FIG. 1A). To further confirm that TLR4 was indeed the receptor, compound 1a was assayed for IL-6 production in mBMDCs from wild type and TLR4 deficient mice (FIG. 1B). […] TLR4 signals through two distinct pathways, leading respectively to NF-κB dependent cytokines and type I interferon (IFN) production. Several naturally occurring TLR4 ligands and MPLA have been reported to require CD14 to activate the IFN regulatory pathway. The hTLR4 reporter cell line (FIG. 1A) also overexpresses hMD-2 and hCD14, which are TLR4 accessory proteins.
In vitro assays using TLR reporter cell lines. Murine or humanTLR4 HEK Blue™ cells (Invivogen, 2.5×10^4 cells per well of a 96 well plate), or NF-κB/SEAPorter™ HEK 293 cells (Imgenex, San Diego, Calif.) for human TLR2, TLR3, TLR5, TLR7, TLR8, or TLR9 (5×10^4 cells per well of 96 well plate) were incubated with graded doses of the test compound. […] Secreted alkaline phosphatase (SEAP) activity in the supernatants was determined by a colorimetric assay, using either the SEAPorter Assay Kit (Imgenex, San Diego, Calif.), with absorbance read at 405 nm, or QuantiBlue (Invivogen), with absorbance read at 630 nm. […]

human PBMC [3] = test: IL-8 release in human PBMC (ELISA); assay type: cell-based
Procedure: In vitro activities in human peripheral blood mononuclear cells (PBMC). Human PBMC were isolated from buffy coats obtained from the San Diego Blood Bank (San Diego, Calif.) as described previously.^5,6 PBMC (1×10^6/mL) were incubated with various compounds in complete RPMI (Omega Scientific) for 18 h at 37° C., 5% CO2 and culture supernatants were collected. The levels of IL-8 in the supernatants were determined by ELISA (BD Biosciences).

human PBMC [4] = test: MTT viability of human PBMC; assay type: cell-based; settings: 10 μM, 18 h incubation

CCOC(=O)c1nc(Nc2cc(Oc3ccccc3)cc([N+](=O)[O-])c2)c2ccccc2n1 [Compound 1a, Ethyl 4-((3-nitro-5-phenoxyphenyl)amino)quinazoline-2-carboxylate]
NF-κB activation potency, human THP-1 versus mouse RAW264.7 (THP-1 cells): significantly more potent | Expression of co-stimulatory molecules CD40, CD80, CD86 (mBMDC; TLR4 deficient mBMDC): not in the TLR4 deficient cells | Expression of co-stimulatory molecules CD40, CD80, CD86 (mBMDC; wild type mBMDC): increased | Release of type I IFN (human PBMC [1]): comparable to that of LPS | NF-κB activation (SEAP) across TLR transfected cells [2]: only those expressing TLR4/MD-2/CD14 responded | IL-8 release (% of LPS control) at 0.5 µM (human PBMC [3]; Homo sapiens, PBMC, 18 h, 0.5 μM, IL-8 release, normalized to LPS positive control=100): 22.2% | Concentration inducing detectable levels of IL-8 (human PBMC [3]; hPBMC, graded concentrations): below 1 μM | IL-8 release in presence of polymyxin B (human PBMC [3]; polymyxin B 10 μg/mL, overnight): not reduced | Viability by MTT assay (human PBMC [4]): 112±2.1%
